PMC11109052, “Metabolism characterization and toxicity of N-hydap, a marine candidate drug for lung cancer therapy by LC–MS method” (Natural Products and Bioprospecting, 2024)

Assays:
[1] = Distribution studies in mice organs; type: in vivo; settings: 30 min and 4 h
Protocol: The heart, liver, spleen, lungs and kidneys were removed from mice after administering a dose of 5 mg/kg through oral gavage and 2 mg/kg through tail vein injection at 30 min and 240 min, followed by homogenization with normal saline. The resulting homogenate was centrifuged at 4 °C, 13,000 rpm for 20 min, and the supernatant was then mixed with the internal standard by vortexing. The mixtures were centrifuged at 4 °C, 13,000 rpm for 15 min. The resulting supernatant was then subjected to vacuum drying for 3–4 h. Lastly, the dried powder was reconstituted with a mixture of 50% methanol and water, and then centrifuged for LC–MS testing.

Cyp2c39 = assay: Real-time PCR mRNA level after 7 days gavage: Cyp2c39 (human homolog CYP2C19); type: in vivo, mice; set-up: key to CYP2C19 mNA expression: ↑: up-regulation; ↓: down-regulation; –: no change
Protocol: Mice were randomly divided into four groups, with eight animals in each group. The mice received oral pretreatment with N-hydap for 7 days at doses of 2, 5, and 10 mg/kg/day, which were considered as the low dose, medium dose, and high dose, respectively. Correspondingly, the control group received PBS. On the 8th day, the liver and kidneys were removed, and organs from eight mice per group were combined to prepare MLMs and MKMs using the detailed procedures above. Subsequently, we determined the activity of CYP and UGT enzymes by specific substrate metabolized with MLMs (0.5 mg/mL) and MKMs (0.2 mg/mL) in vitro. Specifically, the following selective substrates were used for the respective enzymes: PH (1 μM) for CYP1A2, DIC (1 μM) for CYP2C9, MP (90 μM) for CYP2C19, DM (1 μM) for CYP2D6, CZX (10 μM) for CYP2E1, Tes (1 μM) for CYP3A4, SN38 (1 μM) for UGT1A1, CACD (100 μM) for UGT1A3, Sero (20 μM) for UGT1A6, and Prop (1 μM) for UGT1A9. All substrates were dissolved in methanol or DMSO. The incubation procedure was carried out as mentioned above, and the reaction was terminated with VER (20 ng/mL) in ESI+ mode and CLP (200 ng/mL) in ESI− mode. In the ex vivo experiments, the activity of enzymes was measured by quantifying the production of various metabolites (nM/mg protein/min). The metabolites and their corresponding enzymes are as follows: APAP from PH, 4-OH-DIC from DIC, 4-OH-MP from MP, DXO from DM, 6-OH-CZX from CZX, 6-OH-Tes from Tes, SN38-G from SN38, CACD-G from CACD, Sero-G from Sero, Prop-G from Prop. The measurements were performed using multiple reaction monitoring (MRM) transitions, which are specific mass spectrometry transitions used for quantification. […]
Total RNA from liver and kidney samples taken after 7 days of N-hydap gavage was extracted using the Animal Total RNA Isolation Kit (Foregene, Chengdu, Sichuan, China) following the manufacturer’s instructions. The concentrations of total RNA were determined by a nucleic acid concentration tester at 260/280 nm. […]

Cyp2e1 = assay: Real-time PCR mRNA level after 7 days gavage: Cyp2e1; type: in vivo, mice; set-up: key to CYP2E1 mNA expression: ↑: up-regulation; ↓: down-regulation; –: no change; settings: for mRNA levels of Cyp2e1: mice, 2, 5, 10 mg/kg p.o. 7 days
Protocol: (§1) Mice were randomly divided into four groups, with eight animals in each group. The mice received oral pretreatment with N-hydap for 7 days at doses of 2, 5, and 10 mg/kg/day, which were considered as the low dose, medium dose, and high dose, respectively. Correspondingly, the control group received PBS. On the 8th day, the liver and kidneys were removed, and organs from eight mice per group were combined to prepare MLMs and MKMs using the detailed procedures above. Subsequently, we determined the activity of CYP and UGT enzymes by specific substrate metabolized with MLMs (0.5 mg/mL) and MKMs (0.2 mg/mL) in vitro. Specifically, the following selective substrates were used for the respective enzymes: PH (1 μM) for CYP1A2, DIC (1 μM) for CYP2C9, MP (90 μM) for CYP2C19, DM (1 μM) for CYP2D6, CZX (10 μM) for CYP2E1, Tes (1 μM) for CYP3A4, SN38 (1 μM) for UGT1A1, CACD (100 μM) for UGT1A3, Sero (20 μM) for UGT1A6, and Prop (1 μM) for UGT1A9. All substrates were dissolved in methanol or DMSO. The incubation procedure was carried out as mentioned above, and the reaction was terminated with VER (20 ng/mL) in ESI+ mode and CLP (200 ng/mL) in ESI− mode. In the ex vivo experiments, the activity of enzymes was measured by quantifying the production of various metabolites (nM/mg protein/min). The metabolites and their corresponding enzymes are as follows: APAP from PH, 4-OH-DIC from DIC, 4-OH-MP from MP, DXO from DM, 6-OH-CZX from CZX, 6-OH-Tes from Tes, SN38-G from SN38, CACD-G from CACD, Sero-G from Sero, Prop-G from Prop. The measurements were performed using multiple reaction monitoring (MRM) transitions, which are specific mass spectrometry transitions used for quantification. The optimized parameters for each metabolite, such as declustering potential and collision energy, were described in Supplementary Table 1. All experiments were conducted in triplicate, to ensure accuracy and reproducibility.
Total RNA from liver and kidney samples taken after 7 days of N-hydap gavage was extracted using the Animal Total RNA Isolation Kit (Foregene, Chengdu, Sichuan, China) following the manufacturer’s instructions. The concentrations of total RNA were determined by a nucleic acid concentration tester at 260/280 nm. A HiScript III RT SuperMix for qPCR (+ gDNA wiper) (Vazyme, Nanjing, Jiangsu, China) was used to measure the concentration of the synthesized cDNA. ChamQ SYBR qPCR Master Mix (Vazyme, Nanjing, Jiangsu, China) and detection were performed using a Light Cycler 480 II (ROCHE, Basel, Switzerland). Real-time PCR was used to analyze the relative mRNA levels of Cyp1a2, Cyp2b10, Cyp2c39, Cyp2d22, Cyp2e1, Cyp3a11, Ugt1a1, Ugt1a6a and Ugt1a9 (human homologs: CYP1A2, CYP2B6, CYP2C19, CYP2D6, CYP2E1, CYP3A4, UGT1A1, UGT1A6, and UGT1A9) in the liver, kidneys, and intestines. […]

CYP2D6 = assay: DME activity ex vivo in MLMs and MKMs: CYP2D6 (DXO from DM); set-up: species or system mice; key to CYP2D6 Enzymatic activity: ↑: up-regulation; ↓: down-regulation; –: no change
Protocol: as §1

Compound: CC1CCC2C(C=CC(C)C2C(=O)c2c(O)c(C3(O)CCC(O)C4OC43)cn(O)c2=O)C1 (stereo not drawn) [N-hydap, N-Hydroxyapiosporamide]
- total distribution ratio, heart ([1]; oral 5 mg/kg): 13.35%
- total distribution ratio, kidneys ([1]; oral 5 mg/kg): 25.50%
- total distribution ratio, liver ([1]; oral 5 mg/kg): 11.45%
- total distribution ratio, lungs ([1]; oral 5 mg/kg): 26.26%
- total distribution ratio, spleen ([1]; oral 5 mg/kg): 23.44%
- total distribution ratio, heart ([1]; tail vein injection 2 mg/kg): 10.57%
- total distribution ratio, kidneys ([1]; tail vein injection 2 mg/kg): 14.08%
- total distribution ratio, liver ([1]; tail vein injection 2 mg/kg): 37.61%
- total distribution ratio, lungs ([1]; tail vein injection 2 mg/kg): 23.17%
- total distribution ratio, spleen ([1]; tail vein injection 2 mg/kg): 14.57%
- CYP2C19 mNA expression (Cyp2c39; Kidney): ↓
- CYP2C19 mNA expression (Cyp2c39; Liver): ↓
- mRNA levels of Cyp2c39 (Cyp2c39; mice, 2, 5, 10 mg/kg p.o. 7 days, liver and kidneys): slight reduction
- CYP2E1 mNA expression (Cyp2e1; Kidney): ↑
- CYP2E1 mNA expression (Cyp2e1; Liver): –
- mRNA levels of Cyp2e1 (Cyp2e1; intestines): slight reduction
- mRNA levels of Cyp2e1 (Cyp2e1; kidney): modest increase
- CYP2D6 Enzymatic activity (CYP2D6; Kidney): ↑
- CYP2D6 Enzymatic activity (CYP2D6; Liver): ↓
- CYP2D6 inhibitor, experimental results (CYP2D6; Table 4 experimental column): Inhibition in the liver
- reduction of formation rate of DXO vs control (CYP2D6; liver microsomes of mice pretreated 7 days p.o.): 54%
